The values that follow come from ChEMBL document CHEMBL1201862, “PubChem BioAssay data set” (2004).

What is called GI50 is the concentration at which growth is held to half of that of the control.

Test systems include 786-0; A498; A549; ACHN; HOP-62; Hs-578T; IGROV-1; M14; Malme-3M; NCI-H460; NCI-H522; NCI/ADR-RES; RPMI-8226; SK-OV-3; SNB-75; TK-10; UACC-257; UO-31; SR; MCF7.
Holding throughout (assay): DTP human tumour cell line panel, 48 h

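Tested at 5 concentrations; 48 h exposure; 96-well plates; endpoints linearly interpolated, else capped at highest concentration. The concentration for 50% growth inhibition is given as GI50.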 Calls of active or inactive are those of the source. No stated cut-off is given here; in the data, active = GI50 up to about 1.1 µM and inactive = higher. Where only a bound is given, the exact number is not on record here.

In the case of `C/C(=N\NC(=S)N1CC2CCC(CC2)C1)c1cccc(C)n1`, the GI50 is 1.08 µM (active) in the experiment with 786-0; 3.11 µM (inactive) in the experiment with A498; 0.9 µM (active) with A549; 0.59 µM (active) in the experiment with ACHN; 1.06 µM (active) in the experiment on HOP-62; 4.11 µM (inactive) with Hs-578T. The GI50 in the experiment on IGROV-1 was 0.815 µM (active); in the experiment with M14, 0.269 µM (active); in the experiment on Malme-3M it was 2.11 µM (inactive); with NCI-H460, 0.248 µM (active); in the experiment with NCI-H522, 0.00432 µM (active); in the experiment with NCI/ADR-RES, 0.01 µM (active). In addition, the GI50 in the experiment with RPMI-8226 is 0.31 µM (active); in the experiment with SK-OV-3, 0.809 µM (active); in the experiment with SNB-75, 2.64 µM (inactive); with TK-10, 2.54 µM (inactive); with UACC-257, 0.142 µM (active); with UO-31 it was 0.505 µM (active).
As for `O=S(=O)(O)c1cc(O)c(/N=N/c2ccc3ccccc3c2O)c2ccccc12` [ERIOCHROME BLUE BLACK B], the GI50 is 31.4 µM (inactive) in the experiment on 786-0; 21.1 µM (inactive) in the experiment on A549; 24.6 µM (inactive) in the experiment on ACHN; 30.3 µM (inactive) in the experiment with HOP-62; 40.8 µM (inactive) in the experiment with Hs-578T; 3.59 µM (inactive) in the experiment with IGROV-1. The GI50 is 13.3 µM (inactive) in the experiment with M14; 0.0753 µM (active) with Malme-3M; 15.1 µM (inactive) with NCI-H522; 15.6 µM (inactive) with NCI/ADR-RES; 41.7 µM (inactive) with RPMI-8226; 31.6 µM (inactive) in the experiment with SK-OV-3. Further, the GI50 in the experiment on SNB-75 was 16.7 µM (inactive); with SR, 7.41 µM (inactive); with TK-10, 66.2 µM (inactive); in the experiment with UACC-257, 25.8 µM (inactive); in the experiment on UO-31, 17.1 µM (inactive).
Take `CCCCSC1=N/C(=C\c2ccc(N(C)C)cc2)C(NN)=N1`: the GI50 in the experiment with 786-0, in the experiment with A498, in the experiment on A549, in the experiment with ACHN, in the experiment on HOP-62 and in the experiment on Hs-578T was > 100 µM (inactive) each time. The GI50 in the experiment with IGROV-1, with M14, in the experiment with MCF7, in the experiment with Malme-3M, in the experiment on NCI-H460 and in the experiment with NCI-H522 was > 100 µM (inactive) throughout. In addition, the GI50 in the experiment on NCI/ADR-RES, with RPMI-8226, in the experiment on SK-OV-3, with SNB-75, in the experiment with TK-10 and in the experiment on UACC-257 was > 100 µM (inactive) throughout.
`COC(=O)C1=C(OC(=O)/C=C/c2ccc(Cl)cc2)C(C(=O)OC)[C@]2(O)[C@@H](C(=O)OC)[C@H]1C[C@@H](c1ccccc1)[C@@H]2C(=O)OC` (stereo partly specified): the GI50 with 786-0 was 4.92 µM (inactive); in the experiment on A498 it was 6.04 µM (inactive); with A549 it was 3.7 µM (inactive); in the experiment with ACHN, 4.74 µM (inactive); in the experiment on HOP-62, > 57.4 µM (inactive); with Hs-578T, 7.71 µM (inactive). Besides, the GI50 in the experiment with IGROV-1 is 3.18 µM (inactive); in the experiment on M14 it was 6.1 µM (inactive); in the experiment on Malme-3M it was 4.94 µM (inactive); with NCI-H460, 4.15 µM (inactive); in the experiment on NCI-H522 it was 2.34 µM (inactive); in the experiment on NCI/ADR-RES it was 3.52 µM (inactive). Moreover, the GI50 is 3.92 µM (inactive) in the experiment on RPMI-8226; 29.9 µM (inactive) in the experiment on SK-OV-3; 12.3 µM (inactive) in the experiment on SNB-75; 4.5 µM (inactive) with SR; > 30.3 µM (inactive) with TK-10; 26.2 µM (inactive) in the experiment on UACC-257. Further, in the experiment on UO-31, the GI50 was 7.08 µM (inactive).
Turning to `O=C(O)CSc1nc2ccccc2[nH]1`, the GI50 with 786-0, in the experiment on A498, in the experiment on A549, in the experiment with ACHN, with HOP-62 and with Hs-578T was > 100 µM (inactive) each time. Further, the GI50 in the experiment with IGROV-1, in the experiment on M14, with Malme-3M, in the experiment on NCI-H460, in the experiment with NCI-H522 and with NCI/ADR-RES was > 100 µM (inactive) throughout. The GI50 with SNB-75, with SR, in the experiment with TK-10, with UACC-257 and in the experiment with UO-31 was > 100 µM (inactive) each time.
As to `O=C(Cc1ccccc1)NN1C(=O)/C(=C\c2ccccc2O)S/C1=N\c1ccccc1`, the GI50 in the experiment with 786-0, in the experiment on A498, with A549, with ACHN, with HOP-62 and with Hs-578T was > 100 µM (inactive) each time. Also, the GI50 with IGROV-1, in the experiment on M14, with MCF7, in the experiment with NCI-H460, in the experiment with NCI/ADR-RES and in the experiment on RPMI-8226 was > 100 µM (inactive) each time. Further, the GI50 in the experiment with SK-OV-3, with SNB-75, in the experiment on TK-10, in the experiment with UACC-257 and in the experiment with UO-31 was > 100 µM (inactive) each time.
Take `CCCCCCC(=O)O[C@H]1CC[C@H]2[C@@H]3CCC4C/C(=N/NC(=O)c5cccc6c(=O)c7ccccc7[nH]c56)C=C(C)[C@]4(C)[C@H]3CC[C@]12C` (stereo partly specified): the GI50 with 786-0, in the experiment with A549, in the experiment with ACHN, in the experiment with HOP-62, in the experiment with Hs-578T and in the experiment with IGROV-1 was > 25 µM (inactive) each time. In addition, the GI50 with M14, with MCF7, with Malme-3M, in the experiment on NCI/ADR-RES, in the experiment on RPMI-8226 and with SK-OV-3 was > 25 µM (inactive) in each case. The GI50 is > 25 µM (inactive) in the experiment with SNB-75; > 25 µM (inactive) with SR; > 25 µM (inactive) in the experiment with TK-10; > 25 µM (inactive) with UACC-257; 19.6 µM (inactive) in the experiment on UO-31.
For `C[C@H](NC(=O)C(Cc1ccccc1)(Cc1ccc(O)cn1)NC(=O)c1ccccc1)c1ccccc1` (stereo partly specified), the GI50 with 786-0 was 16.7 µM (inactive); with A498 it was 18.1 µM (inactive); in the experiment with A549, 14.3 µM (inactive); with ACHN, 18.9 µM (inactive); in the experiment on HOP-62, 17.9 µM (inactive); in the experiment with Hs-578T, 16.7 µM (inactive). The GI50 in the experiment on IGROV-1 was 16.3 µM (inactive); with M14, 15.3 µM (inactive); with MCF7, 24.2 µM (inactive); in the experiment on Malme-3M, 17.5 µM (inactive); in the experiment with NCI-H522 it was 15.5 µM (inactive); in the experiment on NCI/ADR-RES, 17.4 µM (inactive). For the same compound, the GI50 is 21.1 µM (inactive) in the experiment with RPMI-8226, 29.9 µM (inactive) in the experiment on TK-10, 17.7 µM (inactive) in the experiment on UACC-257 and 14.8 µM (inactive) with UO-31.
For `NCCCCN(CCCN)C(=O)c1ccccc1`, the GI50 in the experiment on 786-0, with A498, in the experiment with A549, in the experiment with ACHN, in the experiment on HOP-62 and in the experiment with Hs-578T was > 100 µM (inactive) each time. Also, the GI50 in the experiment with IGROV-1, with M14, with MCF7, in the experiment on NCI-H460, in the experiment with NCI-H522 and with NCI/ADR-RES was > 100 µM (inactive) each time. In addition, the GI50 with RPMI-8226, in the experiment with SK-OV-3, with SNB-75, in the experiment with TK-10, with UACC-257 and in the experiment on UO-31 was > 100 µM (inactive) throughout.
As for `COc1cccc(/C=N/n2c(Cc3ccccc3)n[nH]c2=O)c1`, the GI50 with 786-0 is 50.1 µM (inactive); in the experiment with A498 it was > 100 µM (inactive); in the experiment on A549, > 100 µM (inactive); in the experiment with ACHN, > 100 µM (inactive); with HOP-62, 42.9 µM (inactive); with Hs-578T, 26.7 µM (inactive). The GI50 with M14 was > 100 µM (inactive); with MCF7, > 100 µM (inactive); in the experiment on Malme-3M, > 67.6 µM (inactive); in the experiment on NCI-H460, > 100 µM (inactive); in the experiment on NCI-H522, 16.8 µM (inactive); in the experiment on NCI/ADR-RES it was > 31.9 µM (inactive). Further, the GI50 in the experiment on RPMI-8226 is > 100 µM (inactive); with SK-OV-3, > 100 µM (inactive); with SNB-75, 29.4 µM (inactive); in the experiment with TK-10, > 100 µM (inactive); with UACC-257 it was > 100 µM (inactive); with UO-31, > 100 µM (inactive).
With `O=c1[nH]nc(-c2ccccc2)n1/N=C/c1cccs1`, the GI50 was 91.4 µM (inactive) with 786-0; 54.2 µM (inactive) in the experiment on A498; 52.4 µM (inactive) with A549; 70 µM (inactive) in the experiment on ACHN; > 100 µM (inactive) with HOP-62; 56 µM (inactive) in the experiment with Hs-578T. In addition, the GI50 is > 100 µM (inactive) in the experiment with M14; 46.6 µM (inactive) in the experiment on MCF7; 62.5 µM (inactive) in the experiment on Malme-3M; 36.3 µM (inactive) in the experiment with NCI-H460; 32.7 µM (inactive) with NCI/ADR-RES; 27.1 µM (inactive) with RPMI-8226. Further, the GI50 with SK-OV-3 was > 100 µM (inactive); in the experiment on SNB-75, 49.7 µM (inactive); in the experiment with UACC-257 it was 56.8 µM (inactive); in the experiment with UO-31 it was 58.3 µM (inactive).
